Reference: publication PMC4969146 (Bioorganic & medicinal chemistry letters, 2016)
In brackets after ≈: the same amount, converted by molar mass. Read-outs that look alike come from different tables or passages of the source.

Test system: Escherichia coli K12
Format: cell-based
[1] = K12, read-out: Minimum Inhibitory Concentration E. coli K12, M9 media
[2] = K12, read-out: Minimum Inhibitory Concentration E. coli K12, M9 plus 5 µg/mL PABA
[3] = K12, read-out: Minimum Inhibitory Concentration E. coli K12, M9 plus 20 µg/mL Methionine

Compound | MIC [1] | MIC [2] | MIC [3]
Nc1ccc(S(=O)(=O)c2ccc(N)cc2)cc1 [parent sulfonamide of 21, 4-[(4-aminobenzene)sulfonyl]aniline] | 25 µM (≈ 6.21 µg/mL) | > 934 µM | 50 µM
Nc1ccc(S(N)(=O)=O)cc1 [parent sulfonamide of 22, sulfanilamide] | 22 µM (≈ 3.79 µg/mL) | > 934 µM | 58 µM
COc1cc(NS(=O)(=O)c2ccc(N)cc2)nc(OC)n1 [parent sulfonamide of 19, sulfadimethoxine] | 1.6 µM (≈ 0.497 µg/mL) | 537 µM | 3.4 µM
Cc1cc(NS(=O)(=O)c2ccc(N)cc2)no1 [parent sulfonamide of 15, sulfamethoxazole] | 0.8 µM (≈ 0.203 µg/mL) | 263 µM | 1.5 µM
